Results reported in EP0861891A1, “Compounds for modulating cell negative regulations and biological applications thereof” (INSTITUT NATIONAL DE LA SANTE ET DE LA RECHERCHE MEDICALE …, priority 1996, dated 1998).
Where a SMILES comes first, the peptide text is derived from it.

Target: T1, GST-SHP-1.SH2(C) (Mus musculus, UniProt P29351)
T1 construct: recombinant fusion proteins corresponding to the isolated N- and C-SH2 domains of SHP-1; made in house; host or cells: E. coli DH5α
T1 sequence (P29351 110-213 limits assumed): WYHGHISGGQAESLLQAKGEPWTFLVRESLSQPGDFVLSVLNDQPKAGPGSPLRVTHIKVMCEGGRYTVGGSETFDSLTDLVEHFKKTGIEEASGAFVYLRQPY
Assay: Surface plasmon resonance, binding of phosphorylated KIR ITIM peptides to SHP-1 C-SH2 domain
Design: species or system murine
Conditions: calculated from koff/kon
Experimental: Fusion proteins and surface plasmon resonance analysis. Surface plasmon resonance (SPR) measurements were performed on a BIAcore™ (Pharmacia). The GST-SHP-1.SH2(NC), GST-SHP-1.SH2(N), GST-SHP-1.SH2(C), GST-SHIP.SH2 fusion proteins generated from the murine phosphatase cDNA, were purified from DH5α lysates. Briefly, overnight culture at 37°C in LB medium containing 50 µg/ml ampicillin was diluted 1/10 in fresh medium, and incubated until the absorbance at 600 nm reaches 1-2. At that point, IPTG was added (1mM), and incubation continued for an additional 4 hours at 37°C. […] Protein purity was assessed by 12.5 % SDS-PAGE, and Coomassie blue staining. […] Then, biotinylated peptides were injected, and their binding to streptavidine-coated microchips was assessed using anti-phosphotyrosine 4G10 mAb (UBI).
The measurement of phosphorylated p58.2 peptide binding to GST-SHP-1.SH2(N) and GST-SHP-1.SH2(C) fusion proteins was at a constant 5 µl/min flow rate. […] Results are expressed as corrected resonance units (CRU) corresponding to the raw RU values subtracted from background RU value due to the injection medium. In this representative experiment, 130 RU of p58.2.1 peptide and 160 RU of p58.2.2 peptide were immobilized on microchips. koff and kon were calculated from three independent measurements using the BIAevaluation 2.0 software. Kd was calculated from koff/kon.

With `CC[C@H](C)[C@H](NC(=O)[C@H](CC(=O)O)NC(=O)[C@@H](NC(=O)[C@@H]1CCCN1C(=O)[C@@H]1CCCN1C(=O)[C@@H](NC(=O)[C@H](CCCCN)NC(=O)[C@@H]1CCCN1C(=O)[C@H](CCCNC(=N)N)NC(=O)[C@H](CCC(N)=O)NC(=O)[C@H](CO)NC(=O)[C@@H]1CCCN1C(=O)[C@H](CCCNC(=N)N)NC(=O)CCCC[C@@H]1SC[C@@H]2NC(=O)N[C@@H]21)[C@@H](C)O)[C@@H](C)O)C(=O)N[C@H](C(=O)N[C@H](C(=O)N[C@@H](Cc1ccc(OP(=O)(O)O)cc1)C(=O)N[C@H](C(=O)N[C@@H](CCC(=O)O)C(=O)N[C@@H](CC(C)C)C(=O)N1CCC[C@H]1C(=O)N[C@@H](CC(N)=O)C(=O)N[C@@H](C)C(=O)N[C@@H](CCC(=O)O)C(=O)N1CCC[C@H]1C(=O)O)[C@@H](C)O)C(C)C)[C@@H](C)CC` [p58.2.2, RPSQRPKTPPTDIIVY333TELPNAEP] (HELM PEPTIDE1{[O=C1N[C@H]2[C@H](CS[C@H]2CCCCC(=O)[*:2])N1].R.P.S.Q.R.P.K.T.P.P.T.D.I.I.V.[O=C([C@H](Cc1ccc(OP(=O)(O)O)cc1)N[*:1])[*:2]].T.E.L.P.N.A.E.P}$$$$V2.0) the Kd was 545 nM.
